# What was measured:
# AGS p-ERK = experiment: Cell assay for p-ERK (HTRF, Advance ERK phospho-T202/Y204 kit); format: cell-based, human; conditions: AGS cells (KRAS G12D), 3 hrs with compound, inhibition of p-ERK level
# Method: AGS was purchased from ATCC, Article No.: CRL-1739; F12K was purchased from Gibco, Article No.: 21127-022; FBS was purchased from Gibco, Article No.: 10099-141C; the trypsin (containing EDTA) was purchased from Gibco, Article No.: 25200-072; DMSO was purchased from VWRAMRESCO, Article No.: 0231-500ML; the 96-well cell culture plate was purchased from Corning, Article No.: 3599; the white-bottom opaque 96-well plate was purchased from Cisbio, Article No.: 66PL96025; Advance ERK phospho-T202/Y204 kit was purchased from Cisbio, Article No.: 64AERPEH; the cell counter was purchased from CHEMOMETEC, model: NC-200; the microplate reader was purchased from PerkinElmer, model: Envison.
# AGS, an endogenous human gastric adenocarcinoma cell line with KRAS^G12D mutation, was cultured in F12K+10% FBS medium. On the first day of the experiment, cells in logarithmic growth period were digested with trypsin (containing EDTA), collected and counted, and about 20,000 cells/well were inoculated in a 96-well cell culture plate and cultured overnight in an incubator with 5% CO2. 1000× compound stock solutions with gradient concentrations of 3.16 times were prepared with DMSO, and 200-fold diluted to 5× compound stock solutions with the above culture medium. The 5× compound stock solution was added to each cell culture well on the second day after cell inoculation, to give a final concentration of 1× and DMSO content of 0.1%. DMSO was used as experimental control. After adding the compound, the cells were continuously cultured for 3 hrs. Then, the culture medium in the well was removed, and 50 μl/well of cell lysis buffer (from Advanced ERK phospho-T202/Y204 kit, the same hereinafter) was added, and mixed uniformly. The cells were cultured for 30 min. Then 16 μl of the mixture was transferred to a white-bottom opaque 96-well plate, and 16 μl of the cell lysis buffer was added to an additional well and used as a blank. After that, 4 μl of p-ERK HTRF antibody mixed solution (from Advanced ERK Phos Pho-T202/Y204 Kit) was added to each well. After incubation for 4 hrs, the fluorescence value (RLU) of HTRF was read on a microplate reader. The inhibition rate of the compound on p-ERK level was calculated by the formula IR (%)=(RLU of control−RLU of compound)/(RLU of control−RLU of blank)×100%. The compound concentration and the corresponding inhibition rate on p-ERK level in the cells were fitted by using Prism 8 four-parameter method, and the IC50 value was calculated.
# [1] = system: AsPC-1 human pancreatic cancer cell with KRAS G12D mutation; experiment: Cell proliferation inhibition experiment, 3D CellTiter-Glo, AsPC-1; format: cell-based; conditions: AsPC-1 cells, 3D spheroid, 5 days
# Source text: (§1) AsPC-1 was purchased from ATCC, Article No.: CRL-1682; AGS was purchased from ATCC, Article No.: CRL-1739; RPMI1640 was purchased from Gibco, Article No.: 11875-093 2235123; F12K was purchased from Gibco, Article No.: 21127-022; FBS was purchased from Gibco, Article No.: 10099-141C; the trypsin (containing EDTA) was purchased from Gibco, Article No.: 25200-072; CellTiter Glo-3D was purchased from Progema, Article No.: G9683; the 384-well spheroid plate was purchased from Corning, Article No.: 3830; the white-bottom opaque 384-well plate was purchased from Corning, Article No.: 3570; the cell counter was purchased from CHEMOMETEC, model: NC-200; the microplate reader was purchased from PerkinElmer, model: Envison;
# (§2) AsPC-1, an endogenous human pancreatic cancer cell AsPC-1 with KRAS^G12D mutation, was cultured in RPMI-1640 medium containing 10% FBS. AGS, a human gastric cancer cell line with KRAS^G12D mutation, was cultured in F-12K medium containing 10% FBS. Cells in logarithmic growth period were digested with trypsin (containing EDTA), collected and counted. 800 AsPC-1 cells/well or 400 […] were inoculated in a 384-well spheroid plate, and cultured overnight in an incubator with 5% CO2 to establish a 3D cell model. 1000× compound stock solutions with gradient concentrations of 3.16 times were prepared with DMSO, and 100-fold diluted to 10× compound stock solutions with the culture medium. The 10× compound stock solution was added to each cell culture well on the second day after cell inoculation, to give a final concentration of 1× and DMSO content of 0.1%. DMSO was used as the control, and the culture medium was used as the blank. After the compound was added, the cells were cultured for 5 days. 30 μl CellTiter-Glo working solution was added to each well, and mixed uniformly. The cells were incubated for 30 min, and allowed to stand at room temperature for 30 min. 40 μl of the mixture was transferred to a white-bottom opaque 384-well plate, and the luminescence was read on a microplate reader. The inhibition rate on cell proliferation was calculated by a formula: IR (%)=(RLU of control−RLU of compound)/(RLU of control−RLU of blank)×100%. The gradient concentrations of the compound and the corresponding inhibition rates were fitted by using XLFit four-parameter method, and the IC50 value was calculated. […] The results of some exemplary compounds are shown in Table 2 below (—means not tested).
# [2] = system: AGS human gastric cancer cell line with KRAS G12D mutation; experiment: Cell proliferation inhibition experiment, 3D CellTiter-Glo, AGS; format: cell-based; conditions: AGS cells, 3D spheroid, 5 days
# Source text: as §1, §2
Compound,IC50 (AGS p-ERK) [nM],IC50 [1] [nM],IC50 [2] [nM],IC50 (AGS p-ERK; Homo sapiens) [nM],"IC50 ([1]; Homo sapiens, ASPC1, 120 h) [nM]","IC50 ([2]; Homo sapiens, 120 h) [nM]"
"C#Cc1cccc2cc(N)c(F)c(-c3nc4c5c(nc(OCC6(CN7CCOCC7)CC6)nc5c3F)N3C[C@H]5CC[C@H](N5)[C@H]3[C@H](C)O4)c12 [Z707, 5-ethynyl-3-fluoro-4-((5S,5aS,6S,9R)-1-fluoro-5-methyl-12-((1-(morpholinemethyl)cyclopropyl)methoxy)-5a,6,7,8,9,10-hexahydro-5H-4-oxa-3,10a,11,13,14-pentaaza-6,9-methanonaphtho[1,8-ab]hepten-2-yl)naphthalen-2-amine]",0.95,5.24,7.44,,,
C#Cc1cccc2cc(N)cc(-c3nc4c5c(nc(OCC(C)C(O)C(F)F)nc5c3F)N3C[C@H]5CC[C@H](N5)[C@H]3[C@H](C)O4)c12 (stereo partly drawn) [Z742],,,,52,312,156
"[2H]C([2H])([2H])[C@@H]1Oc2nc(-c3cc(N)cc(Cl)c3C(F)(F)F)c(F)c3nc(OC[C@]45CCCN4CCC5=C(F)F)nc(c23)N2C[C@H]3CC[C@H](N3)[C@@H]12 [Z1072, 3-chloro-5-((5S,5aS,6S,9R)-12-(((R)-1-(difluoromethylene)tetrahydro-1H-pyrrolizin-7a(5H)-yl)methoxy)-1-fluoro-5-(methyl-d3)-5a,6,7,8,9,10-hexahydro-5H-4-oxo-3,10a,11,13,14-pentaaza-6,9-methanonaphtho[1,8-ab]hepten-2-yl)-4-(trifluoromethyl) aniline]",,,,,2.26,0.5
"C#Cc1c(F)ccc2cccc(-c3nc4c5c(nc(OC[C@]67C[C@@H](F)CN6CCC7=C)nc5c3F)N3C[C@H]5CC[C@H](N5)[C@H]3[C@H](C)O4)c12 [Z689, (5S,5aS,6S,9R)-2-(8-ethynyl-7-fluoronaphthalen-1-yl)-1-fluoro-12-(((6R,7aR)-6-fluoro-1-methylenetetrahydro-1H-pyrrolizin-7a(5H)-yl)methoxy)-5-methyl-5a,6,7,8,9,10-hexahydro-5H-4-oxa-3,10a,11,13,14-pentaaza-6,9-methanonaphtho[1,8-ab]heptene]",6.61,17.4,19.3,,,
"[2H]C([2H])([2H])[C@@H]1Oc2nc(-c3cc(N)cc(Cl)c3C(F)(F)F)c(F)c3nc(OC[C@]45CCCN4CCC5=C)nc(c23)N2C[C@H]3CC[C@H](N3)[C@@H]12 [Z1060, 3-chloro-5-((5S,5aS,6S,9R)-1-fluoro-5-(methyl-d3)-12-(((R)-1-methylenetetrahydro-1H-pyrrolizin-7a(5H)-yl)methoxy)-5a,6,7,8,9,10-hexahydro-5H-4-oxo-3,10a,11,13,14-pentaaza-6,9-methanonaphtho[1,8-ab]hepten-2-yl)-4-(trifluoromethyl) aniline]",,,,0.72,1.63,0.19
"C#Cc1cccc2cc(N)cc(-c3nc4c5c(nc(OCC67CCCN6CCC7(F)F)nc5c3F)N3C[C@H]5CC[C@H](N5)[C@H]3[C@H](C)O4)c12 (stereo partly drawn) [Z741, 4-((5S,5aS,6S,9R)-12-((1,1-difluorotetrahydro-1H-pyrrolizin-7a(5H)-yl)methoxy)-1-fluoro-5-methyl-5a,6,7,8,9,10-hexahydro-5H-4-oxa-3,10a,11,13,14-pentaaza-6,9-methanonaphtho[1,8-ab]hepten-2-yl)-5-ethynylnaphthalen-2-amine]",,,,4.06,10.1,19.2
C#Cc1cccc2cc(N)cc(-c3nc4c5c(nc(OCC67CCCN6CC(=C(F)F)C7)nc5c3F)N3C[C@H]5CC[C@H](N5)[C@H]3[C@H](C)O4)c12 (stereo partly drawn) [Z747],,,,0.37,,
"C#Cc1cccc2cc(N)c(F)c(-c3nc4c5c(nc(OCC6(CN7CCOCC7)CC6)nc5c3F)N3C[C@H]5CC[C@H](N5)[C@H]3[C@H](C)O4)c12 [Z957, 5-ethynyl-3-fluoro-4-((5S,5aS,6S,9R)-1-fluoro-5-methyl-12-((1-(morpholinemethyl)cyclopropyl)methoxy)-5a,6,7,8,9,10-hexahydro-5H-4-oxa-3,10a,11,13,14-pentaaza-6,9-methanonaphtho[1,8-ab]hepten-2-yl)naphthalen-2-amine]",,,,0.97,6.51,7.61
"C=C1CN2CCCC2(COc2nc3c4c(nc(-c5cccc6cccc(Cl)c56)c(F)c4n2)OC(CC)[C@@H]2[C@@H]4CC[C@H](CN32)N4)C1 (stereo partly drawn) [Z596, (5S,5aS,6S,9R)-2-(8-chloronaphthalen-1-yl)-5-ethyl-1-fluoro-12-((2-methylenetetrahydro-1H-pyrrolizin-7a(5H)-yl)methoxy)-5a,6,7,8,9,10-hexahydro-5H-4-oxy-3,10a,11,13,14-pentaaza-6,9-methanonaphtho[1,8-ab]heptene]",,,,,411,268
"C#Cc1c(F)ccc2cccc(-c3nc4c5c(nc(OC[C@]67CCCN6CCC7=C)nc5c3F)N3C[C@H]5CC[C@H](N5)[C@H]3C(CF)O4)c12 (stereo partly drawn) [Z746, (5aS,6S,9R)-2-(8-ethynyl-7-fluoronaphthalen-1-yl)-1-fluoro-5-(fluoromethyl)-12-(((R)-1-methylenetetrahydro-1H-pyrrolizin-7a(5H)-yl)methoxy)-5a,6,7,8,9,10-hexahydro-5H-4-oxa-3,10a,11,13,14-pentaaza-6,9-methanonaphtho[1,8-ab]heptene]",,,,17.1,,
"C#Cc1c(F)ccc2cccc(-c3nc4c5c(nc(OC[C@]67CCCN6CCC7=C)nc5c3F)N3C[C@H]5CC[C@H](N5)[C@H]3[C@@H](C(F)F)O4)c12 [Z736, (5S,5aS,6S,9R)-5-(difluoromethyl)-2-(8-ethynyl-7-fluoronaphthalen-1-yl)-1-fluoro-12-(((R)-1-methylenetetrahydro-1H-pyrrolizin-7a(5H)-yl)methoxy)-5a,6,7,8,9,10-hexahydro-5H-4-oxa-3,10a,11,13,14-pentaaza-6,9-methanonaphtho[1,8-ab]heptene]",,,,,254,389
"6-((5S,5aS,6S,9R)-12-(((R)-1-(difluoromethylene)tetrahydro-1H-pyrrolizin-7a(5H)-yl)methoxy)-1-fluoro-5-(methyl-d3)-5a,6,7,8,9,10-hexahydro-5H-4-oxa-3,10a,11,13,14-pentaaza-6,9-methanonaphtho[1,8-ab]hepten-2-yl)-4-methyl-5-(trifluoromethyl)pyridine-2-amine [Z1295]",13.9,,,,,
